Patent US12337023B2, “Methods and compositions for the prevention and treatment of disease” (Stealth BioTherapeutics Inc., priority 2014, dated 2025)
Non-standard residues stand in square brackets, D forms with d. Residues, ends and D or L forms follow the SMILES beside them. No end group written: not given here. Dmt = Cc1cc(O)cc(C)c1C[C@H](N)C(=O)O

How the values were obtained:
[1] = system: several mammalian cell types; conditions: energy-independent manner (Zhao, et al., 2003); cited from earlier work
[2] = system: Col4a3 null mice (Alport mice); assay: Survival of Col4a3 null mice (Alport Syndrome mouse model); format: in vivo; conditions: 1 mg/kg or 5 mg/kg once daily subcutaneous
Text: Six animals from experimental groups (1)-(4) were sacrificed for tissue collection at week 15. One kidney from each animal was harvested for protein/RNA analysis and the second kidney was collected for paraffin sections for analysis via microscopy. Survival data was collected for the remaining 10 animals in groups (1)-(4).

[3] = Col4a3 null mice, daily 5 mg/kg, 15 weeks of age, 30 minutes after the last injection; compared with 5 mg/kg at 6 weeks and 1 mg/kg at 15 weeks
Description: Homozygous male Col4a3 null mice and wild-type litter mates were used in this study. Subjects were divided into the following groups: • (1) Healthy wild-type controls • (2) Col4a3 null mice treated with water • (3) Col4a3 null mice treated with 1 mg/kg D-Arg-2′6′-Dmt-Lys-Phe-NH2 • (4) Col4a3 null mice treated with 5 mg/kg D-Arg-2′6′-Dmt-Lys-Phe-NH2 • (5) Col4a3 null mice treated with 5 mg/kg D-Arg-2′6′-Dmt-Lys-Phe-NH2 (Pharmacokinetics group)
Groups (1)-(4) consisted of 16 mice, out of which 10 were used for survival rate studies and 6 for pathology and RNA/protein analysis. Group (5) consisted of 6 mice, 3 of which were sacrificed at 30 minutes after the 7th injection (age, 6 weeks), and 3 at 24 hours after the 7th injection (age, 6 weeks).

mu-opioid receptor = mu-opioid receptor (Homo sapiens, UniProt P35372); conditions: stated in the description, no test described; cited from earlier work
mu-opioid receptor, sequence (P35372 whole entry, species assumed): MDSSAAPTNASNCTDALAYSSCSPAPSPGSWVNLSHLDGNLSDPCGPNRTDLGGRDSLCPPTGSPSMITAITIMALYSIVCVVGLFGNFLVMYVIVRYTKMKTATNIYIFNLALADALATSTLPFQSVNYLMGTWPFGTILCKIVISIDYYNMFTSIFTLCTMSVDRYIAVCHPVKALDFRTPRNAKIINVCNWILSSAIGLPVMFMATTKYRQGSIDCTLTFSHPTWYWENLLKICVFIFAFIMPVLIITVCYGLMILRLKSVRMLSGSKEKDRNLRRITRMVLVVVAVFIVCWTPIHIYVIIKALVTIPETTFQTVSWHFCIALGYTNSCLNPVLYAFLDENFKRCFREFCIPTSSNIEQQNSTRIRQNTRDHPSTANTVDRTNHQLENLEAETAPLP

In the case of 2′,6′-Dmt-D-Arg-Phe-Lys-NH2, the “penetration of the plasma membrane” value [1] is given as “readily penetrates the plasma membrane”.

For Cc1cc(O)cc(C)c1C[C@H](NC(=O)[C@H](N)CCCNC(=N)N)C(=O)N[C@@H](CCCCN)C(=O)N[C@@H](Cc1ccccc1)C(N)=O [D-Arg-2′,6′-Dmt-Lys-Phe-NH2] (H-[dR][Dmt]KF-NH2), the “harm of peptide administration” value [2] was “not harmful” and the plasma levels [3] was “highest”.

In the case of F[dR]FK-NH2, the “mu-opioid receptor agonist activity” value (mu-opioid receptor) is given as “does not have mu-opioid receptor agonist activity”.

For Tyr-D-Arg-Phe-Lys-NH2, the “mu-opioid receptor agonist activity” value (mu-opioid receptor) is listed as “has mu-opioid receptor agonist activity”.
